{
  "source": "paper PMC13164762",
  "about": "“Development and Validation of an LC-MS/MS Method for the Quantitation of JNJ-64619178 (JNJ) in Mouse Plasma: Characterization of In Vitro and In Vivo Pharmacokinetic Properties” (Molecules, 2026)",
  "assay": "Biodistribution and brain penetration after PO dose",
  "format": "in vivo, balb/c mice",
  "settings": "for concentration at 2 h / concentration at 8 h / concentration at 24 h: po",
  "method": "Mouse plasma and tissue samples (liver, spleen, kidney, lung and brain) were prepared following the SPE procedure. Collected tissues were homogenized using Tissue Lyser II purchased from Qiagen Science, KY, after adding four times as much water as the tissue mass. For calibration standards and QC sample preparation, the 10 µL working stock and IS were spiked into 100 µL mouse plasma or tissue homogenates (liver, spleen, kidney, lung, and brain). After vortexing for 30 s on a Mixmate (Eppendorf North America, Enfield, CT, USA), samples were diluted with 600 µL of 5% formic acid and vortexed again at 1000 rpm for 2 min. Samples were centrifuged at 956× g for 10 min to get a clear sample that was not prone to blocking the cartridge during the SPE. Extraction was initiated by conditioning the cartridge (Oasis HLB 1 cc, Waters, Millford, MA, USA) with 1 mL of methanol, followed by a second conditioning with 1 mL of water. Then, the above-prepared samples were loaded into the cartridge and allowed to pass through the cartridge. Next, the cartridge was washed with 1 mL 15% methanol and dried for 1 min prior to the elution. For final elution, 500 µL 5% ammonium hydroxide in acetonitrile was eluted through the cartridges twice. Collected eluates were dried in a nitrogen dryer and reconstituted with 200 µL of mobile phase. Reconstituted samples were centrifuged at 956× g for 10 min, 150 µL supernatants were collected, and 5 µL was injected for LC-MS/MS.\nFor the oral PK study, male balb/C mice were grouped into two groups, with n = 4 for each group. Throughout the experiment, mice had free access to adequate food and water. The oral solution comprised 20% (v/v) polyethylene glycol 400, 10% (v/v) propylene glycol, 10% (v/v) ethanol, 2% (v/v) DMSO, 5% cremophore, and water as the rest of the volume. For the IV dose administration, 12 male balb/C mice were used in the study, divided into two groups. The IV solution used the same composition as the oral study. Doses of 10 and 2.5 mg kg^−1 were used for oral and IV routes, respectively. Blood samplings were done at 5 min, 15 min, 30 min, 1 h, 2 h, 4 h, 8 h, and 24 h. After collection, blood samples were centrifuged immediately at 956× g for 10 min, and plasma was separated in an Eppendorf tube and stored at −80 °C until processed. In the oral PK study, tissues—liver, kidney, spleen, lung, and brain—were collected at 2, 8, and 24 h to assess the biodistribution pattern of JNJ in the oral route.",
  "note": "Read-outs that look alike come from different tables or passages of the source.",
  "data": [
    {"compound": "Nc1nc2cc(CC[C@H]3C[C@@H](n4ccc5c(N)ncnc54)[C@H](O)[C@@H]3O)ccc2cc1Br", "note": "[JNJ, JNJ-64619178]", "values": [
      {"measurement": "Brain Content", "setting": "2 h after single PO 10 mg kg^−1, balb/c mice, n = 4", "result": 55, "unit": "ng/g"},
      {"measurement": "Brain Content", "setting": "8 h after single PO 10 mg kg^−1, balb/c mice, n = 4", "result": 34, "unit": "ng/g"},
      {"measurement": "Brain Content", "setting": "24 h after single PO 10 mg kg^−1, balb/c mice, n = 4", "result": 23, "unit": "ng/g"},
      {"measurement": "unbound plasma and brain concentrations/contents, fold lower than in vitro IC50", "setting": "across all time points, PO 10 mg kg^−1", "result": "more than 20 fold"},
      {"measurement": "concentration at 2 h", "setting": "male, BALB/c, mouse, brain, 10 mg kg^−1, 2 h, PO 10 mg kg^−1, estimated with fu,brain = 0.057, read-out: Unbound Brain Content", "result": 3.1, "unit": "ng/g"},
      {"measurement": "concentration at 2 h", "setting": "male, BALB/c, mouse, brain, 10 mg kg^−1, 2 h after single PO 10 mg kg^−1, balb/c mice, n = 4, read-out: Brain Content", "result": "55 ± 27", "unit": "ng/g"},
      {"measurement": "concentration at 8 h", "setting": "male, BALB/c, mouse, brain, 10 mg kg^−1, 8 h, PO 10 mg kg^−1, estimated with fu,brain = 0.057, read-out: Unbound Brain Content", "result": 1.9, "unit": "ng/g"},
      {"measurement": "concentration at 8 h", "setting": "male, BALB/c, mouse, brain, 10 mg kg^−1, 8 h after single PO 10 mg kg^−1, balb/c mice, n = 4, read-out: Brain Content", "result": "34 ± 1", "unit": "ng/g"},
      {"measurement": "concentration at 24 h", "setting": "male, BALB/c, mouse, brain, 10 mg kg^−1, 24 h, PO 10 mg kg^−1, estimated with fu,brain = 0.057, read-out: Unbound Brain Content", "result": 1.3, "unit": "ng/g"},
      {"measurement": "concentration at 24 h", "setting": "male, BALB/c, mouse, brain, 10 mg kg^−1, 24 h after single PO 10 mg kg^−1, balb/c mice, n = 4, read-out: Brain Content", "result": "23 ± 3", "unit": "ng/g"},
      {"measurement": "concentration at 8 h", "setting": "male, BALB/c, mouse, kidney, 10 mg kg^−1, 8 h after single PO 10 mg kg^−1, balb/c mice, n = 4, read-out: Content, Kidney", "result": "474 ± 131", "unit": "ng/g"},
      {"measurement": "concentration at 24 h", "setting": "male, BALB/c, mouse, kidney, 10 mg kg^−1, 24 h after single PO 10 mg kg^−1, balb/c mice, n = 4, read-out: Content, Kidney", "result": "56 ± 27", "unit": "ng/g"},
      {"measurement": "concentration at 8 h", "setting": "male, BALB/c, mouse, liver, 10 mg kg^−1, 8 h after single PO 10 mg kg^−1, balb/c mice, n = 4, read-out: Content, Liver", "result": "1190 ± 167", "unit": "ng/g"},
      {"measurement": "concentration at 24 h", "setting": "male, BALB/c, mouse, liver, 10 mg kg^−1, 24 h after single PO 10 mg kg^−1, balb/c mice, n = 4, read-out: Content, Liver", "result": "52 ± 31", "unit": "ng/g"},
      {"measurement": "concentration at 2 h", "setting": "male, BALB/c, mouse, lung, 10 mg kg^−1, 2 h after single PO 10 mg kg^−1, balb/c mice, n = 4, read-out: Content, Lung", "result": "2570 ± 550", "unit": "ng/g"},
      {"measurement": "concentration at 8 h", "setting": "male, BALB/c, mouse, lung, 10 mg kg^−1, 8 h after single PO 10 mg kg^−1, balb/c mice, n = 4, read-out: Content, Lung", "result": "599 ± 91", "unit": "ng/g"},
      {"measurement": "concentration at 24 h", "setting": "male, BALB/c, mouse, lung, 10 mg kg^−1, 24 h after single PO 10 mg kg^−1, balb/c mice, n = 4, read-out: Content, Lung", "result": "45 ± 25", "unit": "ng/g"},
      {"measurement": "concentration at 2 h", "setting": "male, BALB/c, mouse, plasma, 10 mg kg^−1, 2 h, PO 10 mg kg^−1, balb/c mice, read-out: Plasma Concentration", "result": 1470, "unit": "ng/mL"},
      {"measurement": "concentration at 2 h", "setting": "male, BALB/c, mouse, plasma, 10 mg kg^−1, 2 h, PO 10 mg kg^−1, estimated with fu,plasma = 0.025, read-out: Unbound Plasma Concentration", "result": 37, "unit": "ng/mL"},
      {"measurement": "concentration at 8 h", "setting": "male, BALB/c, mouse, plasma, 10 mg kg^−1, 8 h, PO 10 mg kg^−1, balb/c mice, read-out: Plasma Concentration", "result": 93, "unit": "ng/mL"},
      {"measurement": "concentration at 8 h", "setting": "male, BALB/c, mouse, plasma, 10 mg kg^−1, 8 h, PO 10 mg kg^−1, estimated with fu,plasma = 0.025, read-out: Unbound Plasma Concentration", "result": 2.3, "unit": "ng/mL"},
      {"measurement": "concentration at 24 h", "setting": "male, BALB/c, mouse, plasma, 10 mg kg^−1, 24 h, PO 10 mg kg^−1, balb/c mice, read-out: Plasma Concentration", "result": 1.6, "unit": "ng/mL"},
      {"measurement": "concentration at 24 h", "setting": "male, BALB/c, mouse, plasma, 10 mg kg^−1, 24 h, PO 10 mg kg^−1, estimated with fu,plasma = 0.025, read-out: Unbound Plasma Concentration", "result": 0.04, "unit": "ng/mL"},
      {"measurement": "concentration at 2 h", "setting": "male, BALB/c, mouse, spleen, 10 mg kg^−1, 2 h after single PO 10 mg kg^−1, balb/c mice, n = 4, read-out: Content, Spleen", "result": "1900 ± 220", "unit": "ng/g"},
      {"measurement": "concentration at 8 h", "setting": "male, BALB/c, mouse, spleen, 10 mg kg^−1, 8 h after single PO 10 mg kg^−1, balb/c mice, n = 4, read-out: Content, Spleen", "result": "643 ± 58", "unit": "ng/g"},
      {"measurement": "concentration at 24 h", "setting": "male, BALB/c, mouse, spleen, 10 mg kg^−1, 24 h after single PO 10 mg kg^−1, balb/c mice, n = 4, read-out: Content, Spleen", "result": "95 ± 25", "unit": "ng/g"},
      {"measurement": "concentration at 2 h", "setting": "male, balb/c, mouse, kidney, 10 mg kg^−1, 2 h after single PO 10 mg kg^−1, balb/c mice, n = 4, read-out: Content, Kidney", "result": "2950 ± 822", "unit": "ng/g"},
      {"measurement": "concentration at 2 h", "setting": "male, balb/c, mouse, liver, 10 mg kg^−1, 2 h after single PO 10 mg kg^−1, balb/c mice, n = 4, read-out: Content, Liver", "result": "6070 ± 1500", "unit": "ng/g"},
      {"measurement": "Kp uu at 2 h", "setting": "male, mouse, brain, 2 h, PO 10 mg kg^−1, balb/c mice, read-out: Kp,uu,brain (unbound brain-to-plasma partition coefficient)", "result": 0.08},
      {"measurement": "Kp uu at 8 h", "setting": "male, mouse, brain, 8 h, PO 10 mg kg^−1, balb/c mice, read-out: Kp,uu,brain (unbound brain-to-plasma partition coefficient)", "result": 0.82},
      {"measurement": "Kp uu at 24 h", "setting": "male, mouse, brain, 24 h, PO 10 mg kg^−1, balb/c mice, read-out: Kp,uu,brain (unbound brain-to-plasma partition coefficient)", "result": 33.3}
    ]}
  ]
}
